Data reported in US4075332A (priority 1976, dated 1978).
Like-named read-outs stand apart in the source and are kept apart here.

Experiments:
Mexican bean beetle [1] = conditions: in vivo
Cabbage looper [2] = test: Field control of cabbage looper on collards (Example 28); assay type: in vivo; conditions: Table XVI; 1.5 lbs/acre; nil 5.3; higher ratings indicate more damage
Excerpt: (§1) King Cole cabbage and Vates Collards were transplanted on Feb. 1. Cabbage treatments were made on 50 ft. rows and replicated 4 times. Collard treatments were made on 25 ft. rows and replicated 4 times. Collard and cabbage rows were placed side-by-side and were flanked by guard rows. Except for insecticide treatment, the plots were managed in accordance with recommended farming practice for the area. Chemicals were applied on April 3, 10, 17, 24, May 1, 8, 15, 22 and 29, and readings were made on June 1.

in vivo = conditions: rat, po
Southern army worm = conditions: in vivo
Cabbage looper [3] = test: Field control of cabbage looper on cabbage (Example 28); assay type: in vivo; conditions: Table XVI; 1.5 lbs/acre; nil 5.9; higher ratings indicate more damage
Excerpt: as §1

Corn earworm = test: Field control of corn earworm on corn (Example 28); assay type: in vivo
Excerpt: (§2) Corn plots were planted on March 22. Each treatment was made on a 50 ft. row flanked by guard rows. Treatments were replicated 4 times and the average rating is reported. Except for insecticide treatment, the plots were managed in accordance with recommended farming practice for the area.
Corn earworm applications were made during silking on May 29, June 1, 2, 3, 4, 5, 8, 9, 10, 11 and 12. Readings were made on June 15.

Mexican bean beetle [4] = test: whole plant or invertebrate; conditions: Epilachna varivestis
Bean aphids [5] = test: whole plant or invertebrate; conditions: Aphis fabae, 48 h
Corn rootworm larvae [6] = test: whole plant or invertebrate; conditions: soil, 120 h
Fall armyworm = test: Field control of fall armyworm on sweet corn (Example 28); assay type: in vivo
Method: as §2
Fall armyworm plots on sweet corn were treated on May 13, 20 and 27. Readings were made on May 29.

Spider mites [7] = test: Mite, Systemic; assay type: in vivo, two-spotted mite; conditions: Tetranychus urticae, read-out: Mortality Produced, % - Spider Mites Systemic
Method: (§3) In the insecticidal and miticidal tests, the experimental compounds were tested as aqueous emulsions. These emulsions were prepared by dissolving the compound in acetone and dispersing it in distilled water with Triton X-100, an alkylaryl polyether alcohol derived by the reaction of i-octylphenol with ethylene oxide, to give spray emulsions containing the desired concentrations of the compound. These emulsions were then used in standard laboratory tests described below.
Mite, Systemic: Bean plants infested with the two-spotted mites were treated by applying 20 ml. of the formulated test chemical to the soil.

Spider mites [8] = test: whole plant or invertebrate; conditions: Tetranychus urticae; for mortality at 10 ppm: read-out: Spider Mites Mortality,%
Spider mites [9] = conditions: in vivo, 48 h
Bean aphids [10] = test: Aphid, Systemic; assay type: in vivo, bean aphid; conditions: Aphis fabae, 48 h, read-out: Mortality Produced, % - Bean Aphids Systemic
Method: as §3
Aphid, Systemic: Nasturtium plants infested with the bean aphid were treated by applying 20 ml. of the formulated test chemical to the soil. The degree of aphid control was rated after 2 days.

House fly [11] = conditions: in vivo, 48 h
House fly [12] = test: whole plant or invertebrate; conditions: Musca domestica, 48 h
Root-knot nematode = conditions: in vivo
[13] = test system: insects, mites and nematodes; test: Overall pesticidal activity in the greenhouse and laboratory tests (in words); assay type: in vivo
Method: In Examples 14-29 which follow, the new dithiophosphate compositions of the present invention were tested in the greenhouse and in the laboratory to determine their biological activity. Structurally related, known compounds, usually leading cmmercial compounds, were also tested side-by-side to determine the relative pesticidal effectiveness of the new compounds.
as §3

warm blooded animals = test: Toxicity towards warm blooded animals (in words); assay type: in vivo; conditions: summary statements
Method: Each compound tested was administered orally by stomach tube to five to eight groups of five male albino rate of the Sprague Dawley strain, weighing 220 to 300 grams at various dosage levels. Following incubation, the animals were closely observed for mortality and toxic effects at intervals for 14 days. Statistical analysis of the mortality data was carried out to determine the median lethal dosages (LD50) according to the method of W. R. Thompson as described in the Journal Bact. Rev. in Vol. 11, pages 115-145 in 1947, utilizng the tables of H. J. Horn published in the Journal Biometrics, Vol. 12, page 311 in 1956. The LD50 dosages are expressed in mg weights of test material per kg weight of rat used.

Lepidoptera = test: Activity against Lepidoptera / pest spectrum (in words); assay type: in vivo
[14] = test system: powdery mildew fungus (Erysiphe Polygoni); test: Bean Powdery Mildew eradicant test; assay type: in vivo; conditions: Table III; 200 ppm
Sclerotium = Sclerotium soil fungicide test; assay type: in vivo; conditions: Table III; 100 lb/acre
Method: Sterilized soil was inoculated with Solerotium and placed into a 4-ounce "Dixie cup", and drenched with 20 ml. of an emulsion of the test chemical. The cup was then incubated for 2 days at 70° F. Thereafter, the amount of mycelial growth on the soil surface was rated and the control by the chemical estimated accordingly.

[15] = test system: bean rust fungus (Uromyces Phaseoli); test: Bean Rust eradicant test; assay type: in vivo; conditions: Table III; 200 ppm
Method: In these tests, the experimental compounds were tested in aqueous emulsions, prepared in the same manner as was previously described above with respect to the insecticidal and miticidal tests.
Pinto bean plants with fully expanded primary leaves were inoculated with spores of the bean rust fungus (Uromyces Phaseoli) and incubated for 24 hours. The test were then carried out as described above for Bean Powdery Mildew.

Bean aphids [16] = conditions: bean aphid, in vivo, 48 h
[17] = test system: bean rust fungus (Uromyces Phaseoli); test: Bean Rust systemic eradicant test; assay type: in vivo; conditions: Table III; 200 ppm
Method: Pinto bean plants were inoculated 24 hours prior to use as above and the soil in the pot was then treated with 20 ml. of an emulsion of the test chemical. The rest of the test and the evaluation were then carried out an above for Bean Powdery Mildew.

Corn rootworm larvae [18] = conditions: in vivo, 120 h
[19] = read-out: Mexican Bean Beetles Mortality,%
[20] = read-out: Mortality Produced at 50 ppm, % - Mexican Bean Beetles
[21] = read-out: Mortality Produced, % - Mex.Bean Beetle
[22] = read-out: Bean Aphids Mortality,%
[23] = read-out: Mortality Produced at 50 ppm, % - Bean Aphids
[24] = read-out: Mortality Produced, % -
[25] = read-out: Mortality Produced, % - Bean Aphids Contact
[26] = read-out: Corn Rootworm Mortality, % at 2.5 ppm
[27] = read-out: Corn Rootworm Mortality,%
[28] = 48 h, read-out: Mortality Produced, % - Spider Mites Contact
[29] = read-out: Mortality Produced at 50 ppm, % - Spider Mites
[30] = read-out: Mortality Produced at 50 ppm, % - Houseflies
[31] = read-out: Mortality Produced, % - House Flies

CCCSP(=O)(OCC)SCC(C)SC (centres unmarked) [Example 32, O-Ethyl S-1-Propyl S'-2-Methylthiopropyl dithiophosphate]
Mortality Produced, % - Mex.Bean Beetle (Mexican bean beetle [1]): 100% | Cabbage Looper Harvest Rating - Collards (Cabbage looper [2]): 2.0 | LD50 at 336 h (in vivo): 109 mg/kg | S.Armyworm Mortality,% (Southern army worm): 100% | Mortality Produced at 50 ppm, % - Southern Army Worm (Southern army worm; southern armyworm): 100% | Mortality Produced, % - S.Army Worm (Southern army worm; southern armyworm): 100% | Cabbage Looper Harvest Rating - Cabbage (Cabbage looper [3]): 3.8 | control of corn earworms (in words) (Corn earworm; 0.5 lbs per acre): excellent control | Corn Earworm, % Clean Ears (Corn earworm; Table XVI, 0.5 lbs/acre, nil 36): 94% | mortality at 50 ppm (Mexican bean beetle [4]; [19]): 100% | mortality at 50 ppm (Mexican bean beetle [4]; [20]): 100% | mortality at 50 ppm (Mexican bean beetle [4]; [21]): 100% | mortality at 250 ppm (Mexican bean beetle [4]; [21]): 100% | mortality at 50 ppm (Bean aphids [5]; [22]): 100% | mortality at 50 ppm (Bean aphids [5]; [23]): 100% | mortality at 50 ppm (Bean aphids [5]; [24]): 100% | mortality at 250 ppm (Bean aphids [5]; [24]): 100% | mortality at 50 ppm (Bean aphids [5]; [25]): 100% | mortality at 250 ppm (Bean aphids [5]; [25]): 100% | mortality at 2.5 ppm (Corn rootworm larvae [6]; [26]): 100% | mortality at 2.5 ppm (Corn rootworm larvae [6]; [27]): 100% | Fall Armyworm Injury Free Stalks of Sweet Corn, % (Fall armyworm; Table XVI, 0.75 lbs/acre, nil 67): 91% | control of fall armyworm (in words) (Fall armyworm; sweet corn, 0.75 lbs. per acre): well controlled | mortality at 50 ppm (Spider mites [7]): 100% | mortality at 250 ppm (Spider mites [7]): 100% | mortality at 50 ppm (Spider mites [8]; [28]): 100% | mortality at 250 ppm (Spider mites [8]; [28]): 100% | mortality at 50 ppm (Spider mites [8]; [29]): 100% | mortality at 10 ppm (Spider mites [8]): 100% | Mortality Produced, % - Spider Mites Contact (Spider mites [9]; two-spotted spider mite): 100% | mortality at 50 ppm (Bean aphids [10]): 0% | mortality at 250 ppm (Bean aphids [10]): 100% | Mortality Produced, % - House Flies (House fly [11]): 100% | mortality at 50 ppm (House fly [12]; [30]): 100% | mortality at 50 ppm (House fly [12]; [31]): 100% | mortality at 250 ppm (House fly [12]; [31]): 100% | Nematode Control,% (Root-knot nematode): 100% | Nematodes Control % at 25 lb/acre (Root-knot nematode): 100%

CCCCCCSC(C)CSP(=O)(OCC)SCCC (centres unmarked) [Example 36, O-Ethyl S-1-Propyl S'-2-n-Hexylthiopropyl Dithiophosphate]
S.Armyworm Mortality,% (Southern army worm): 100% | mortality at 50 ppm (Mexican bean beetle [4]; [19]): 100% | mortality at 50 ppm (Bean aphids [5]; [22]): 50% | pesticidal activity (in words) ([13]; summary statements): decreased level of activity | mortality at 2.5 ppm (Corn rootworm larvae [6]; [27]): 0% | mortality at 10 ppm (Spider mites [8]): 90% | Nematode Control,% (Root-knot nematode): 10%

CCCSC(C)CSP(=O)(OCC)SCCC (centres unmarked) [Example 34, O-Ethyl S-1-Propyl S'-2-n-Propylthiopropyl Dithiophosphate]
LD50 at 336 h (in vivo): 422 mg/kg | S.Armyworm Mortality,% (Southern army worm): 100% | toxicity (in words) (warm blooded animals): particularly low toxicity | mortality at 50 ppm (Mexican bean beetle [4]; [19]): 100% | mortality at 50 ppm (Bean aphids [5]; [22]): 100% | mortality at 2.5 ppm (Corn rootworm larvae [6]; [27]): 100% | mortality at 10 ppm (Spider mites [8]): 100% | Nematode Control,% (Root-knot nematode): 100%

CCCSP(=O)(OCC)SCC(C)SC(C)=O (centres unmarked) [Example 13, O:ETHYL S-1-PROPYL S-2-ACETYLTHIOPROPYL DITHIOPHOSPHATE]
pesticidal spectrum / activity against Lepidoptera (Lepidoptera): shows the broad pesticidal spectrum and the specific activity against Lepidoptera

CCCSP(=O)(OCC)SCC(SC)C(C)(C)C (centres unmarked) [Example 39, O-Ethyl S-1-Propyl S'-2-Methylthio-3,3-Dimethylbutyl Dithiophosphate]
Mortality Produced at 50 ppm, % - Southern Army Worm (Southern army worm; southern armyworm): 0% | mortality at 50 ppm (Mexican bean beetle [4]; [20]): 0% | mortality at 50 ppm (Bean aphids [5]; [23]): 30% | insecticidal activity at 50 ppm (in words) ([13]; 50 ppm): very little insecticidal activity | mortality at 2.5 ppm (Corn rootworm larvae [6]; [26]): 80% | mortality at 50 ppm (Spider mites [8]; [29]): 100% | mortality at 50 ppm (House fly [12]; [30]): 20%

CCCSP(=O)(OCC)SCC(C)SCC (centres unmarked) [Example 33, O-Ethyl S-1-Propyl S'-2-Ethylthiopropyl Dithiophosphate]
Pest Control, % - Mex. Bean Beetle (Mexican bean beetle [1]): 100% | LD50 at 336 h (in vivo): 214 mg/kg | S.Armyworm Mortality,% (Southern army worm): 100% | Control of Foliar Fungi, % - Bean Mildew Eradicant [14]: 70% | Control of Sclerotium, % (Sclerotium): 60% | mortality at 50 ppm (Mexican bean beetle [4]; [19]): 70% | mortality at 50 ppm (Bean aphids [5]; [22]): 100% | mortality at 2.5 ppm (Corn rootworm larvae [6]; [27]): 100% | Control of Foliar Fungi, % - Bean Rust Eradicant [15]: 80% | Pest Control, % - Bean Aphids Contact (Bean aphids [16]): 100% | mortality at 10 ppm (Spider mites [8]): 100% | Pest Control, % - Spider Mites Contact (Spider mites [9]; spider mite): 100% | Control of Foliar Fungi, % - Bean Rust Systemic Eradicant [17]: 90% | Pest Control, % - Corn Rootworm (0.25 ppm) (Corn rootworm larvae [18]): 100% | Nematode Control,% (Root-knot nematode): 100% | Pest Control, % - Nematode Control (25 lb/acre) (Root-knot nematode): 100%
